{"source": "PubChem BioAssay AID977630", "about": "(Broad Institute, 2014)", "key": {"[1]": {"system": "E. coli humanized H38 RFP strain growth, mixed culture, 24 h", "assay": "growth inhibition of wild-type GFP E. coli, H38-humanized RFP comparator, dose response, H38 mutant RFP vs wild-type GFP, cherry-pick (AID 977630)"}, "[2]": {"system": "E. coli wild-type GFP growth, mixed culture, 24 h", "assay": "growth inhibition of wild-type GFP E. coli, H38-humanized RFP comparator, dose response, H38 mutant RFP vs wild-type GFP, cherry-pick (AID 977630)"}, "[3]": {"conditions": "E. coli mixed culture total OD600 growth, 24 h"}}, "note": "Results filed as inconclusive are left out. Calls of active or inactive are those of the source.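 Rule for the calls: active = Normal-ribosome green reporter loss at least double humanized-ribosome red reporter loss, with overall culture growth inhibition under a set limit; inconclusive = no clear call, values can overlap the other calls; inactive = the rest.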"}
{"smiles": "CSc1nnnn1-c1ccc(Cl)cc1", "values": [{"measurement": "AC50", "setting": "[1]", "value": "> 100", "unit": "µM"}]}
{"smiles": "COc1ccc(-c2nn(-c3ccccc3C)cc2CNCc2cccnc2)cc1F", "values": [{"measurement": "AC50", "setting": "[2]; [3]", "value": "> 100", "unit": "µM"}, {"measurement": "AC50", "setting": "[1]", "value": "> 100", "unit": "µM"}]}
{"smiles": "Cc1ccccc1-c1nc(CS(=O)(=O)CC(=O)N2CCCCC2)c(C)o1", "values": [{"measurement": "AC50", "setting": "[2]; [3]", "value": 45.5, "unit": "µM"}, {"measurement": "AC50", "setting": "[1]", "value": "> 100", "unit": "µM"}]}
{"smiles": "Nc1nc2ccccc2n1CCOc1ccc(F)cc1", "values": [{"measurement": "AC50", "setting": "[2]", "value": "> 100 µM (inactive)"}, {"measurement": "AC50", "setting": "[1]", "value": "< 0.6", "unit": "µM"}]}
{"smiles": "Nc1nc(=S)ss1", "values": [{"measurement": "AC50", "setting": "[2]", "value": "> 100 µM (inactive)"}, {"measurement": "AC50", "setting": "[2]; [3]", "value": "> 100", "unit": "µM"}, {"measurement": "AC50", "setting": "[1]", "value": "< 0.6", "unit": "µM"}]}
{"smiles": "O=C1NC(CCc2ccccc2)C(=O)N1Cc1cccc2ccccc12", "note": "(stereo unspecified)", "values": [{"measurement": "AC50", "setting": "[2]", "value": "> 100 µM (inactive)"}, {"measurement": "AC50", "setting": "[2]; [3]", "value": 51.8, "unit": "µM"}, {"measurement": "AC50", "setting": "[1]", "value": 50.1, "unit": "µM"}]}
{"smiles": "CC(C)C[C@H]1COc2cc(Br)ccc2S(=O)(=O)N1", "values": [{"measurement": "AC50", "setting": "[2]", "value": "> 100 µM (inactive)"}, {"measurement": "AC50", "setting": "[1]", "value": 47, "unit": "µM"}]}
{"smiles": "CC(C)(C)c1ccc(S(=O)(=O)NCc2ccc(C(=O)NCc3ccccn3)cc2)cc1", "values": [{"measurement": "AC50", "setting": "[2]", "value": "> 100 µM (inactive)"}, {"measurement": "AC50", "setting": "[2]; [3]", "value": "> 100", "unit": "µM"}, {"measurement": "AC50", "setting": "[1]", "value": 49.9, "unit": "µM"}]}
{"smiles": "CS(=O)(=O)c1ccc(Cl)c(NC(=O)COC(=O)c2c(Cl)cccc2Cl)c1", "values": [{"measurement": "AC50", "setting": "[2]", "value": "> 100 µM (inactive)"}, {"measurement": "AC50", "setting": "[2]; [3]", "value": "> 100", "unit": "µM"}, {"measurement": "AC50", "setting": "[1]", "value": "> 100", "unit": "µM"}]}
{"smiles": "COc1cccc(NC(=O)C2CCC(CNS(=O)(=O)c3cccc4cccnc34)CC2)c1", "note": "(stereo unspecified)", "values": [{"measurement": "AC50", "setting": "[1]", "value": "> 100", "unit": "µM"}]}
{"smiles": "CC(C)(C)S(=O)(=O)Cc1nc(-c2ccc(Cl)c(Cl)c2)cs1", "values": [{"measurement": "AC50", "setting": "[2]; [3]", "value": "> 100", "unit": "µM"}, {"measurement": "AC50", "setting": "[1]", "value": "> 100", "unit": "µM"}]}
{"smiles": "CCOC(=O)[C@]12Cc3ccccc3[C@H]1N(C)C(=O)c1cc(OC)ccc12", "values": [{"measurement": "AC50", "setting": "[2]", "value": "> 100 µM (inactive)"}, {"measurement": "AC50", "setting": "[2]; [3]", "value": 34.2, "unit": "µM"}, {"measurement": "AC50", "setting": "[1]", "value": 48.7, "unit": "µM"}]}
{"smiles": "O=C(NCc1ccccc1)c1ccc(-c2cn[nH]c2)c2ccoc12", "values": [{"measurement": "AC50", "setting": "[2]", "value": "> 100 µM (inactive)"}, {"measurement": "AC50", "setting": "[1]", "value": "> 100", "unit": "µM"}]}
{"smiles": "CN(C(=O)COc1ccccc1C(=O)NCCOc1ccccc1)c1ccccc1", "values": [{"measurement": "AC50", "setting": "[2]", "value": "> 100 µM (inactive)"}, {"measurement": "AC50", "setting": "[1]", "value": 44.2, "unit": "µM"}]}
{"smiles": "COc1cc(NC(=O)c2ccc(Cl)cc2)c(OC)cc1NC(=O)CN1CCCCC1", "values": [{"measurement": "AC50", "setting": "[2]", "value": "> 100 µM (inactive)"}, {"measurement": "AC50", "setting": "[2]; [3]", "value": "> 100", "unit": "µM"}, {"measurement": "AC50", "setting": "[1]", "value": "> 100", "unit": "µM"}]}
{"smiles": "CCn1cc(Br)c(C(=O)Nc2ccc(C(=O)OC(C)C)cc2)n1", "values": [{"measurement": "AC50", "setting": "[2]", "value": "> 100 µM (inactive)"}, {"measurement": "AC50", "setting": "[2]; [3]", "value": 47.3, "unit": "µM"}, {"measurement": "AC50", "setting": "[1]", "value": 52, "unit": "µM"}]}
{"smiles": "Fc1ccccc1C1CCN(Cc2nc(COc3ccccc3)no2)C1", "note": "(stereo unspecified)", "values": [{"measurement": "AC50", "setting": "[1]", "value": "> 100", "unit": "µM"}]}
{"smiles": "CCc1cc2ccc(OC)cc2nc1SCC(=O)N1CCN(C(=O)c2ccco2)CC1", "values": [{"measurement": "AC50", "setting": "[2]", "value": "> 100 µM (inactive)"}, {"measurement": "AC50", "setting": "[1]", "value": "> 100", "unit": "µM"}]}
{"smiles": "COc1cc(NC(=O)C(c2ccccc2)c2ccccc2)c(C(=O)O)cc1OC", "values": [{"measurement": "AC50", "setting": "[2]", "value": "> 100 µM (inactive)"}, {"measurement": "AC50", "setting": "[1]", "value": 22.3, "unit": "µM"}]}
{"smiles": "O=C(CCCSc1nc2ccccc2s1)NCc1ccc2c(c1)OCO2", "values": [{"measurement": "AC50", "setting": "[2]", "value": "> 100 µM (inactive)"}, {"measurement": "AC50", "setting": "[2]; [3]", "value": 43.8, "unit": "µM"}, {"measurement": "AC50", "setting": "[1]", "value": "> 100", "unit": "µM"}]}
{"smiles": "CCOC(=O)c1csc(NC(=O)CC2CCCC2)n1", "values": [{"measurement": "AC50", "setting": "[2]", "value": "> 100 µM (inactive)"}, {"measurement": "AC50", "setting": "[1]", "value": 51.7, "unit": "µM"}]}
{"smiles": "Cc1ccccc1NS(=O)(=O)c1cc(C(=O)NCCC2=CCCCC2)ccc1C", "values": [{"measurement": "AC50", "setting": "[2]; [3]", "value": "> 100", "unit": "µM"}, {"measurement": "AC50", "setting": "[1]", "value": "> 100", "unit": "µM"}]}
{"smiles": "COC(=O)c1nc(-c2ccc(C)cc2)[nH]c1C(C)(C)C", "values": [{"measurement": "AC50", "setting": "[1]", "value": "> 100", "unit": "µM"}]}
{"smiles": "COc1ccc(NS(=O)(=O)c2ccc(Cl)c(NC(=O)c3ccccc3F)c2)cc1", "values": [{"measurement": "AC50", "setting": "[2]", "value": "> 100 µM (inactive)"}, {"measurement": "AC50", "setting": "[1]", "value": "> 100", "unit": "µM"}]}
{"smiles": "Nc1ncncc1-c1ccc2ccccc2c1", "values": [{"measurement": "AC50", "setting": "[2]", "value": "> 100 µM (inactive)"}, {"measurement": "AC50", "setting": "[1]", "value": "> 100", "unit": "µM"}]}
{"smiles": "Cc1cc(SCC(=O)OCC(=O)NCC2CCCO2)c(C)cc1Br", "note": "(stereo unspecified)", "values": [{"measurement": "AC50", "setting": "[2]", "value": "> 100 µM (inactive)"}, {"measurement": "AC50", "setting": "[1]", "value": "> 100", "unit": "µM"}]}
{"smiles": "COc1ccc(-c2cc(C(=O)O)nc3ccc4ccccc4c23)cc1OC", "values": [{"measurement": "AC50", "setting": "[1]", "value": "> 100", "unit": "µM"}]}
{"smiles": "COc1cc(OC)cc(C(=O)N[C@H](C(=O)OCC(=O)Nc2ccc(F)c(F)c2F)C(C)C)c1", "values": [{"measurement": "AC50", "setting": "[2]", "value": "> 100 µM (inactive)"}, {"measurement": "AC50", "setting": "[1]", "value": "> 100", "unit": "µM"}]}
{"smiles": "Cc1ccc([N+](=O)[O-])c(OCCn2cnc3ccccc32)c1", "values": [{"measurement": "AC50", "setting": "[1]", "value": "> 100", "unit": "µM"}]}
{"smiles": "CN(c1ccc(C(=O)NCc2cccs2)cc1)S(=O)(=O)c1ccccc1", "values": [{"measurement": "AC50", "setting": "[1]", "value": "> 100", "unit": "µM"}]}
{"smiles": "CS(=O)(=O)N1CC2CCCN2c2ccc(C(F)(F)F)cc21", "note": "(stereo unspecified)", "values": [{"measurement": "AC50", "setting": "[2]", "value": "> 100 µM (inactive)"}, {"measurement": "AC50", "setting": "[2]; [3]", "value": "> 100", "unit": "µM"}, {"measurement": "AC50", "setting": "[1]", "value": "> 100", "unit": "µM"}]}
{"smiles": "COc1ccc(OC2C(=O)N(Cc3ccc4c(c3)OCO4)C2c2cccs2)cc1", "note": "(stereo unspecified)", "values": [{"measurement": "AC50", "setting": "[2]", "value": "> 100 µM (inactive)"}, {"measurement": "AC50", "setting": "[1]", "value": 11.5, "unit": "µM"}]}
{"smiles": "O=C(Nc1ccccc1N1CCOCC1)C1CCCCN1S(=O)(=O)c1ccccc1", "note": "(stereo unspecified)", "values": [{"measurement": "AC50", "setting": "[2]; [3]", "value": "> 100", "unit": "µM"}, {"measurement": "AC50", "setting": "[1]", "value": 49.8, "unit": "µM"}]}
{"smiles": "O=C1c2ccccc2NC(c2ccc(-c3cccc([N+](=O)[O-])c3)o2)N1O", "note": "(stereo unspecified)", "values": [{"measurement": "AC50", "setting": "[2]", "value": "> 100 µM (inactive)"}, {"measurement": "AC50", "setting": "[1]", "value": 7.43, "unit": "µM"}]}
{"smiles": "CCN(CC)C(=O)c1ccc(COc2ccccc2Cl)o1", "values": [{"measurement": "AC50", "setting": "[2]", "value": "> 100 µM (inactive)"}, {"measurement": "AC50", "setting": "[2]; [3]", "value": "> 100", "unit": "µM"}]}
{"smiles": "COC(=O)c1sc(C(C)(C)C)cc1CS(=O)(=O)c1ccc(Cl)cc1", "values": [{"measurement": "AC50", "setting": "[2]", "value": "> 100 µM (inactive)"}]}
{"smiles": "CC(C)(C)c1ccc(-c2noc(CCC(=O)NCc3ccco3)n2)cc1", "values": [{"measurement": "AC50", "setting": "[2]", "value": "> 100 µM (inactive)"}]}
{"smiles": "Cc1ccc(S(=O)(=O)N2CCCCC2C(=O)N2CCN(c3ccccc3F)CC2)cc1", "note": "(stereo unspecified)", "values": [{"measurement": "AC50", "setting": "[2]; [3]", "value": "> 100", "unit": "µM"}]}
{"smiles": "CC(=O)NCCOc1nc(N2CCCCC2)nc(N2CCCCC2)n1", "values": [{"measurement": "AC50", "setting": "[2]", "value": "> 100 µM (inactive)"}, {"measurement": "AC50", "setting": "[2]; [3]", "value": "> 100", "unit": "µM"}]}
{"smiles": "CCCC(=O)Nc1sc2c(c1C(=O)Nc1ccccn1)CCCC2", "values": [{"measurement": "AC50", "setting": "[2]", "value": "> 100 µM (inactive)"}, {"measurement": "AC50", "setting": "[2]; [3]", "value": "> 100", "unit": "µM"}]}
{"smiles": "Cc1cc(CNC(=O)c2cc(-c3ccccc3)nc3ccccc23)nn1C", "values": [{"measurement": "AC50", "setting": "[2]", "value": "> 100 µM (inactive)"}]}
{"smiles": "CC(=O)Nc1ccc(OCC(=O)N2CCC(Cc3ccccc3)CC2)cc1", "values": [{"measurement": "AC50", "setting": "[2]", "value": "> 100 µM (inactive)"}]}
